Results on one compound are retold here after publication PMC6504997 (ACS chemical biology, 2018).

Molecules are shown by their SMILES.

For this experiment, the target named is EXOSC3 (GST-EXOSC3, EXOSC3-WT) (Homo sapiens, UniProt Q9NQT5). Briefly: MST, inhibition of RNA binding. As to conditions: 3.12 μM long G-rich RNA (GGGAGGGAGGGAGAGGGA).
Chain of EXOSC3 (GST-EXOSC3, EXOSC3-WT) (Q9NQT5 whole entry): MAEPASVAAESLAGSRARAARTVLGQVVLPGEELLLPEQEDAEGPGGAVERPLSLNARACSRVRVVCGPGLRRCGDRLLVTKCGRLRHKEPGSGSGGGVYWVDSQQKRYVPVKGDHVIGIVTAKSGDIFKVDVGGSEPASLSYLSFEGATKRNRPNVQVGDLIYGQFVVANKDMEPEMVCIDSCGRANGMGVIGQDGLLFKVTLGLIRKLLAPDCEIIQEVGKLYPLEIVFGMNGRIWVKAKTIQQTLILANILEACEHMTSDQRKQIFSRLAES

In general, % inhibition refers to the share of the control response that was lost under treatment. A low value points to a weak effect. Regarding `CC(C)(O)CCc1cccc(C(=O)N2Cc3ccccc3C(O)C2)c1` (stereo not shown) [ERD03, EXOSC3-RNA disrupting (ERD) compound 3], the “% inhibition at 50 μM” value is 54 ± 10%.
